Measurements as given in ChEMBL document CHEMBL1132959, “Design of potent dicyclic (1-5/4-10) gonadotropin releasing hormone (GnRH) antagonists” (J Med Chem, 2000).
pKi: −log10 of the molar value. One block for each molecule: values may come before it.

Assays:
[1] = species on record: Rattus norvegicus; test: Antiovulatory potency at 1000 ug/rat expressed as rats ovulating by total no. of rats (3/3); type: functional
[2] = species on record: Rattus norvegicus; test: Antiovulatory potency at 1000 ug/rat expressed as rats ovulating by total no. of rats (5/5); type: functional
[3] = molecular target: T1, Gonadotropin-releasing hormone receptor (Rattus norvegicus, UniProt P30969); test: Affinity for rat gonadotrophin releasing hormone (GnRH) receptor using HEK293 cells transfected with rat Gonadotropin-releasing hormone receptor; type: cell-based; details: hek293
T1 sequence (P30969 whole entry): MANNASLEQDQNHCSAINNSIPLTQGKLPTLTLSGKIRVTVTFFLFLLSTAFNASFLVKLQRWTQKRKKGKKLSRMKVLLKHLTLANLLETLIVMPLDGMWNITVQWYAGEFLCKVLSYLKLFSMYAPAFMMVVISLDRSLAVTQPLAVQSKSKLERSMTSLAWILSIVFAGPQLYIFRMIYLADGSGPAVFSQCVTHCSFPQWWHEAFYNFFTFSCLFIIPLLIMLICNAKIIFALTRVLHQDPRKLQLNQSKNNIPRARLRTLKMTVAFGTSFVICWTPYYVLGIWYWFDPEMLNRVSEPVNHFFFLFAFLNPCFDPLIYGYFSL

[4] = species on record: Rattus norvegicus; test: Antiovulatory potency at 500 ug/rat expressed as rats ovulating by total no. of rats (6/6); type: functional
[5] = species on record: Rattus norvegicus; test: Antiovulatory potency at 5 ug/rat expressed as rats ovulating by total no. of rats (3/4); type: functional
[6] = species on record: Rattus norvegicus; test: Antiovulatory potency at 25 ug/rat expressed as rats ovulating by total no. of rats (1/5); type: functional
[7] = species on record: Rattus norvegicus; test: Antiovulatory potency at 10 ug/rat expressed as rats ovulating by total no. of rats (4/8); type: functional
[8] = species on record: Rattus norvegicus; test: Antiovulatory potency at 10 ug/rat expressed as rats ovulating by total no. of rats (5/5); type: functional
[9] = species on record: Rattus norvegicus; test: Antiovulatory potency at 50 ug/rat expressed as rats ovulating by total no. of rats (4/8); type: functional
[10] = species on record: Rattus norvegicus; test: Antiovulatory potency at 100 ug/rat expressed as rats ovulating by total no. of rats (0/8); type: functional
[11] = species on record: Rattus norvegicus; test: Antiovulatory potency at 25 ug/rat expressed as rats ovulating by total no. of rats (4/4); type: functional
[12] = species on record: Rattus norvegicus; test: Antiovulatory potency at 250 ug/rat expressed as rats ovulating by total no. of rats (7/7); type: functional
[13] = species on record: Rattus norvegicus; test: Antiovulatory potency at 50 ug/rat expressed as rats ovulating by total no. of rats (0/5); type: functional
[14] = species on record: Rattus norvegicus; test: Antiovulatory potency at 500 ug/rat expressed as rats ovulating by total no. of rats (4/10); type: functional
[15] = molecular target: T1, Gonadotropin-releasing hormone receptor; test: Affinity for rat Gonadotropin-releasing hormone receptor membrane evaluated using HEK293 cells transfected with rat Gonadotropin-releasing hormone receptor; type: cell-based

Structure (SMILES): CC(=O)N[C@H](Cc1ccc2ccccc2c1)C(=O)N[C@@H]1CCC(=O)NCCCC[C@@H](C(=O)N2CCC[C@H]2C(=O)N[C@H](C)C(N)=O)NC(=O)[C@H](CC(C)C)NC(=O)[C@@H](Cc2ccc3ccccc3c2)NC(=O)[C@H](CCCN=C(N)N)NC(=O)[C@H](C)NC(=O)[C@@H](Cc2cccnc2)NC1=O
Ovulating rats [1]: 3

Structure (SMILES): CC(C)C[C@@H]1NC(=O)[C@@H](Cc2ccc3ccccc3c2)NC(=O)[C@H](CCCN=C(N)N)NC(=O)[C@H](C)NC(=O)[C@@H](Cc2cccnc2)NC(=O)[C@@H](Cc2ccc(Cl)cc2)NC(=O)[C@@H](Cc2ccc3ccccc3c2)NC(=O)CCC(=O)NCCCC[C@@H](C(=O)N2CCC[C@H]2C(=O)N[C@H](C)C(N)=O)NC1=O
Ovulating rats [2]: 5

Structure (SMILES): CC(=O)N[C@H]1CC(=O)NCC(=O)NCC[C@H]2NC(=O)[C@H](CC(=O)NC[C@@H](C(N)=O)NC(=O)[C@@H]3CCCN3C(=O)[C@H](CCCN=C(N)N)NC(=O)[C@H](CC(C)C)NC(=O)[C@@H](Cc3ccc4ccccc4c3)NC2=O)NC(=O)[C@@H](Cc2c[nH]c3ccccc23)NC(=O)[C@@H](Cc2ccc(Cl)cc2)NC1=O
Ovulating rats [9]: 4 | Ovulating rats [10]: 0 | Ovulating rats [11]: 4

Structure (SMILES): CC(=O)N[C@H]1CCC(=O)NCCCC[C@@H]2NC(=O)[C@H](CC(C)C)NC(=O)[C@@H](Cc3ccc4ccccc4c3)NC(=O)[C@H](CCCN=C(N)N)NC(=O)[C@H](CC(=O)NC[C@H](C(N)=O)NC(=O)[C@@H]3CCCN3C2=O)NC(=O)[C@@H](Cc2cccnc2)NC(=O)[C@H](Cc2ccc(Cl)cc2)NC1=O
pKi [3]: 8.96 | Ovulating rats [12]: 7 | Ovulating rats [13]: 0

The next lines start with results.

pKi [3]: 7.05
Structure (SMILES): CC(=O)N[C@H]1CSSC[C@@H]2NC(=O)[C@@H](CC(=O)NC[C@H](C(N)=O)NC(=O)[C@H]3CCCN3C(=O)[C@H](CCCN=C(N)N)NC(=O)[C@@H](CC(C)C)NC(=O)[C@H](CCCN=C(N)N)NC2=O)NC(=O)[C@@H](Cc2c[nH]c3ccccc23)NC(=O)[C@H](Cc2ccc(Cl)cc2)NC1=O
Ovulating rats [4]: 6

pKi [3]: 9.12
Structure (SMILES): CC(=O)N[C@@H]1CCC(=O)NCCC(=O)NC[C@H]2NC(=O)[C@@H](CC(=O)NC[C@H](C(N)=O)NC(=O)[C@H]3CCCN3C(=O)[C@H](CCCN=C(N)N)NC(=O)[C@@H](CC(C)C)NC(=O)[C@@H](Cc3ccc4ccccc4c3)NC2=O)NC(=O)[C@@H](Cc2c[nH]c3ccccc23)NC(=O)[C@H](Cc2ccc(Cl)cc2)NC1=O
Ovulating rats [5]: 3 | Ovulating rats [6]: 1 | Ovulating rats [7]: 4

pKi [3]: 8.80
Structure (SMILES): CC(=O)N[C@@H]1CCC(=O)N[C@@H](C)C(=O)NCC[C@H]2NC(=O)[C@@H](CC(=O)NC[C@H](C(N)=O)NC(=O)[C@H]3CCCN3C(=O)[C@H](CCCN=C(N)N)NC(=O)[C@@H](CC(C)C)NC(=O)[C@@H](Cc3ccc4ccccc4c3)NC2=O)NC(=O)[C@@H](Cc2c[nH]c3ccccc23)NC(=O)[C@H](Cc2ccc(Cl)cc2)NC1=O
Ovulating rats [8]: 5

pKi [3]: 9.60
Structure (SMILES): CC(=O)N[C@H]1CSSC[C@H]2NC(=O)[C@@H](CC(=O)NC[C@H](C(N)=O)NC(=O)[C@H]3CCCN3C(=O)[C@H](CCCN=C(N)N)NC(=O)[C@@H](CC(C)C)NC(=O)[C@@H](Cc3ccc4ccccc4c3)NC2=O)NC(=O)[C@@H](Cc2c[nH]c3ccccc23)NC(=O)[C@H](Cc2ccc(Cl)cc2)NC1=O
Ovulating rats [14]: 4

pKi [15]: 8.54
Structure (SMILES): CC(=O)N[C@H]1CCC(=O)NCC(=O)NCC[C@H]2NC(=O)[C@H](CC(=O)NC[C@@H](C(N)=O)NC(=O)[C@@H]3CCCN3C(=O)[C@H](CCCNC(=N)N)NC(=O)[C@H](CC(C)C)NC(=O)[C@@H](Cc3ccc4ccccc4c3)NC2=O)NC(=O)[C@@H](Cc2c[nH]c3ccccc23)NC(=O)[C@@H](Cc2ccc(Cl)cc2)NC1=O
